pIC50: −log10 of the molar value. Active and inactive are the calls of the source. No cut-off for these calls is given here.
Tests used:
[1] = test system: Mus musculus; test: Anti-inflammatory activity in endotoxemia mouse model assessed as suppression of LPS-induced serum MCP-1 level at 10 mg/kg, po preincubated for 30 mins followed by LPS stimulation and measured after 90 mins; type: functional, organism-based; conditions: time 120.0 min
[2] = test system: Monocyte; test: Inhibition of LPS-induced MCP-1 production in mouse Monocyte
[3] = Drug concentration in LPS induced mouse plasma at 100 mg/kg measured after 2 hrs; type: ADME, organism-based
[4] = Drug concentration in LPS induced mouse plasma at 10 mg/kg measured after 2 hrs; type: ADME, organism-based
[5] = test system: Mus musculus; test: Anti-inflammatory activity in endotoxemia mouse model assessed as suppression of LPS-induced serum IL-6 level at 10 mg/kg, po preincubated for 30 mins followed by LPS stimulation and measured after 90 mins; type: functional, organism-based; conditions: time 120.0 min

SMILES	Activity [1]	pIC50 [2]	concentration at 2 h [3] [ng/mL]	concentration at 2 h [4] [ng/mL]	Activity [5]
Cc1csc(-c2cn(C)c(=O)c3cn(CC4CC(C(=O)NC5CCCCC5)CCN(C)C4)nc23)n1 (stereo unspecified)	Active	9.00	707	39.1	Active
Cc1sc2c(c1C)C(c1ccc(Cl)cc1)=N[C@@H](CC(=O)OC(C)(C)C)c1nnc(C)n1-2	–	8.70	–	–	–

— ChEMBL document CHEMBL5576079, “Discovery of a potent orally available pyrazolopyridone derivative as a novel selective bromodomain and extra-terminal domain (BET)-first bromodomain (BD1) inhibitor” (Bioorg Med Chem Lett, 2024)
